Source: ChEMBL document CHEMBL3808308, “Synergistic potentiation of (-)-lomaiviticin A cytotoxicity by the ATR inhibitor VE-821” (Bioorg Med Chem Lett, 2016)
Activity calls are given as the source filed them. No cut-off for these calls is given here.

Key:
[1] = Selectivity ratio of LC50 for chinese hamster VC8 cells expressing BRCA2 to LC50 for BRCA2-deficient chinese hamster VC8 cells; type: functional, Cricetulus griseus
[2] = tested on: K562; experiment: Induction of DNA double-strand breaks in human K562 cells at 50 to 500 pM after 24 hrs by neutral comet assay; type: functional, cell-based
[3] = tested on: K562; experiment: Cytotoxicity against human K562 cells assessed as effect on cell viability at 0.05 to 0.5 nM after 24 to 48 hrs by cell titer-glo luminescence assay; type: functional
[4] = tested on: K562; experiment: Induction of apoptosis in human K562 cells assessed as gammaH2AX/53BP1 levels up to 250 pM after 48 hrs by DAPI staining based immunofluorescence microscopy; type: functional, cell-based
[5] = tested on: K562; experiment: Potentiation of 250 pM (-)-lomaiviticin A-induced cytotoxicity against human K562 cells assessed as decrease in cell viability at 10 uM after 48 hrs by cell titer-glo luminescence assay; type: functional, cell-based
[6] = tested on: U-251; experiment: Cytotoxicity against PTEN-deficient human U251 cells assessed as decrease in cell viability by clonogenic survival assay; type: functional; conditions: read-out: LC50 (the source's name)
[7] = tested on: K562; experiment: Cytotoxicity against human K562 cells assessed as decrease in cell viability at 1 nM after 48 hrs by cell titer-glo luminescence assay; type: functional
[8] = Cytotoxicity against BRCA2-deficient chinese hamster VC8 cells assessed as decrease in cell viability by clonogenic survival assay; type: functional; conditions: Cricetulus griseus, V-C8; read-out: LC50 (the source's name)
[9] = tested on: U-251; experiment: Selectivity ratio of LC50 for human U251 cells expressing PTEN to LC50 for PTEN-deficient human U251 cells; type: functional
[10] = tested on: K562; experiment: Potentiation of 0.05 nM (-)-lomaiviticin A-induced cytotoxicity against human K562 cells assessed as fraction ratio affected at 5 uM after 24 hrs by cell titer-glo luminescence assay; type: functional
[11] = tested on: K562; experiment: Potentiation of 0.025 nM (-)-lomaiviticin A-induced cytotoxicity against human K562 cells assessed as fraction ratio affected at 5 uM after 24 hrs by cell titer-glo luminescence assay; type: functional
[12] = tested on: K562; experiment: Potentiation of 2.5 nM (-)-lomaiviticin A-induced cytotoxicity against human K562 cells assessed as combination index at 5 uM after 48 hrs by cell titer-glo luminescence assay; type: functional
[13] = tested on: K562; experiment: Potentiation of 5 nM (-)-lomaiviticin A-induced cytotoxicity against human K562 cells assessed as combination index at 5 uM after 48 hrs by cell titer-glo luminescence assay; type: functional
[14] = tested on: K562; experiment: Potentiation of 0.05 nM (-)-lomaiviticin A-induced cytotoxicity against human K562 cells assessed as fraction ratio affected at 5 uM after 48 hrs by cell titer-glo luminescence assay; type: functional
[15] = tested on: K562; experiment: Potentiation of 0.25 nM (-)-lomaiviticin A-induced cytotoxicity against human K562 cells assessed as combination index at 5 uM after 48 hrs by cell titer-glo luminescence assay; type: functional
[16] = tested on: K562; experiment: Potentiation of 0.5 nM (-)-lomaiviticin A-induced cytotoxicity against human K562 cells assessed as fraction ratio affected at 5 uM after 24 hrs by cell titer-glo luminescence assay; type: functional
[17] = tested on: K562; experiment: Potentiation of 2.5 nM (-)-lomaiviticin A-induced cytotoxicity against human K562 cells assessed as fraction ratio affected at 5 uM after 24 hrs by cell titer-glo luminescence assay; type: functional
[18] = tested on: K562; experiment: Potentiation of 0.05 nM (-)-lomaiviticin A-induced cytotoxicity against human K562 cells assessed as combination index at 5 uM after 24 hrs by cell titer-glo luminescence assay; type: functional
[19] = tested on: K562; experiment: Potentiation of 0.025 nM (-)-lomaiviticin A-induced cytotoxicity against human K562 cells assessed as combination index at 5 uM after 24 hrs by cell titer-glo luminescence assay; type: functional
[20] = tested on: K562; experiment: Potentiation of 0.25 nM (-)-lomaiviticin A-induced cytotoxicity against human K562 cells assessed as combination index at 5 uM after 24 hrs by cell titer-glo luminescence assay; type: functional
[21] = tested on: K562; experiment: Potentiation of 0.5 nM (-)-lomaiviticin A-induced cytotoxicity against human K562 cells assessed as combination index at 5 uM after 48 hrs by cell titer-glo luminescence assay; type: functional
[22] = tested on: K562; experiment: Potentiation of 0.25 nM (-)-lomaiviticin A-induced cytotoxicity against human K562 cells assessed as fraction ratio affected at 5 uM after 24 hrs by cell titer-glo luminescence assay; type: functional
[23] = tested on: K562; experiment: Potentiation of 0.025 nM (-)-lomaiviticin A-induced cytotoxicity against human K562 cells assessed as fraction ratio affected at 5 uM after 48 hrs by cell titer-glo luminescence assay; type: functional
[24] = tested on: K562; experiment: Potentiation of 0.05 nM (-)-lomaiviticin A-induced cytotoxicity against human K562 cells assessed as combination index at 5 uM after 48 hrs by cell titer-glo luminescence assay; type: functional
[25] = tested on: K562; experiment: Potentiation of 0.5 nM (-)-lomaiviticin A-induced cytotoxicity against human K562 cells assessed as combination index at 5 uM after 24 hrs by cell titer-glo luminescence assay; type: functional
[26] = tested on: K562; experiment: Potentiation of 5 nM (-)-lomaiviticin A-induced cytotoxicity against human K562 cells assessed as combination index at 5 uM after 24 hrs by cell titer-glo luminescence assay; type: functional
[27] = tested on: K562; experiment: Potentiation of 5 nM (-)-lomaiviticin A-induced cytotoxicity against human K562 cells assessed as fraction ratio affected at 5 uM after 48 hrs by cell titer-glo luminescence assay; type: functional
[28] = tested on: K562; experiment: Cytotoxicity against human K562 cells assessed as decrease in cell viability up to 2.5 to 10 uM after 24 to 48 hrs by cell titer-glo luminescence assay; type: cell-based
[29] = tested on: K562; experiment: Potentiation of 2.5 nM (-)-lomaiviticin A-induced cytotoxicity against human K562 cells assessed as combination index at 5 uM after 24 hrs by cell titer-glo luminescence assay; type: functional
[30] = tested on: K562; experiment: Potentiation of 2.5 nM (-)-lomaiviticin A-induced cytotoxicity against human K562 cells assessed as fraction ratio affected at 5 uM after 48 hrs by cell titer-glo luminescence assay; type: functional
[31] = tested on: K562; experiment: Potentiation of 0.025 nM (-)-lomaiviticin A-induced cytotoxicity against human K562 cells assessed as combination index at 5 uM after 48 hrs by cell titer-glo luminescence assay; type: functional
[32] = tested on: K562; experiment: Potentiation of 0.25 nM (-)-lomaiviticin A-induced cytotoxicity against human K562 cells assessed as fraction ratio affected at 5 uM after 48 hrs by cell titer-glo luminescence assay; type: functional
[33] = tested on: K562; experiment: Potentiation of 5 nM (-)-lomaiviticin A-induced cytotoxicity against human K562 cells assessed as fraction ratio affected at 5 uM after 24 hrs by cell titer-glo luminescence assay; type: functional
[34] = tested on: K562; experiment: Potentiation of 0.5 nM (-)-lomaiviticin A-induced cytotoxicity against human K562 cells assessed as fraction ratio affected at 5 uM after 48 hrs by cell titer-glo luminescence assay; type: functional
[35] = Cytotoxicity against human K562 cells assessed as decrease in cell viability after 48 hrs by cell titer-glo luminescence assay; type: cell-based; conditions: read-out: ED50
[36] = tested on: K562; experiment: Cytotoxicity against human K562 cells assessed as decrease in cell viability after 24 to 48 hrs by cell titer-glo luminescence assay; type: cell-based

## CC[C@@]1(O[C@H]2C[C@H](OC)[C@@H](O)[C@H](C)O2)[C@H](O[C@H]2C[C@@H](O)[C@H](N(C)C)[C@@H](C)O2)c2c(c3c(=O)c4c(O)ccc(O)c4c(=O)c=3c2=[N+]=[N-])C(=O)[C@@H]1[C@H]1C(=O)c2c(c(=[N+]=[N-])c3c(=O)c4c(O)ccc(O)c4c(=O)c2=3)[C@@H](O[C@H]2C[C@@H](O)[C@H](N(C)C)[C@@H](C)O2)[C@@]1(CC)O[C@H]1C[C@H](OC)[C@@H](O)[C@H](C)O1
[1]
  RatioLC50: >11.6
[2]
  Activity: inactive
[3]
  Activity: <5%
[4]
  Activity: Active
[5]
  Activity: Active
[6]
  CC50: 0.002 nM
[7]
  Activity: 34%
[8]
  CC50: 0.0015 nM
[9]
  RatioLC50: >11.6

## O=c1cc(N2CCOCC2)oc2c(-c3cccc4c3sc3ccccc34)cccc12
[10]
  Ratio: 0.1367
[11]
  Ratio: 0.1436
[12]
  CI: 1.147
[13]
  CI: 0.6686
[14]
  Ratio: 0.5477
[15]
  CI: 0.8337
[16]
  Ratio: 0.2584
[17]
  Ratio: 0.7163
[18]
  CI: 0.1033
[19]
  CI: 0.0855
[20]
  CI: 0.2068
[21]
  CI: 1.056
[22]
  Ratio: 0.1927
[23]
  Ratio: 0.4881
[24]
  CI: 0.4461
[25]
  CI: 0.3196
[26]
  CI: 0.9596
[27]
  Ratio: 0.9912
[28]
  Activity: Non-toxic
[29]
  CI: 0.8596
[30]
  Ratio: 0.9451
[31]
  CI: 0.4328
[32]
  Ratio: 0.5832
[33]
  Ratio: 0.9647
[34]
  Ratio: 0.6811

## O=C(CCCCCCC(=O)Nc1ccccc1)NO [VORINOSTAT]
[35]
  CC50 at 48 h: 1250 nM
[36]
  Activity: Dose-dependent effect
